Laboratory results reported in patent US20230414571A1, “APPLICATION OF SMALL-MOLECULE COMPOUND IN PREPARATION OF ANTITUMOR DRUG” (SOOCHOW UNIVERSITY, priority 2021, published 2023).

Assays:
[1] = Plasma pharmacokinetics in mice determined by GLMSD; assay type: in vivo, mouse; settings: mouse, in vivo, 40 mg/kg
Protocol: It can be seen from FIG. 8-1 that the GLMSD platform can specifically acquire the pharmacokinetic data of small-molecule compound 27. Competitive advantages of GLMSD in pharmacokinetic research: (1) a complete drug blood concentration curve of each individual may be tracked; and (2) the total number of mice used in the test is reduced. Since the blood sample consumption of the GLMSD method is low (10 μL of blood per time point), one mouse can be used for completing the entire pharmacokinetic curve (blood sampling at 11 time points within 24 hours, and the minimum interval being 0.25 hour) of a drug.
Based on the advantage that the complete PK curve can be tested by means of the GLMSD, we observe that 3 (#2, #3 and #4) in 8 mice have the characteristic re-absorption peak of this small-molecule inhibitor at the time point of 8 h, and such a characteristic re-absorption peak hardly exists in other 5 mice. This significant phenomenon is related to drug uptake differences between individuals, prompting that compound 27 may re-enter blood circulation by means of a secondary absorption pathway. In the mode of continuous multiple administration (c in FIG. 8-2), pharmacokinetic data of compound 27 (40 mg/kg) was collected from each mouse every day (1, 3, 6, and 8 hours after last administration) for 5 days. For a single dose (a in FIG. 8-2) or a continuous multi-dose (d in FIG. 8-2) administration manner, a limitation of a conventional LC-MS technology lies in obtaining a single data point of pharmacokinetics of a drug by sacrificing one mouse, whereas GLMSD can break through this limitation by providing a complete pharmacokinetic curve based on a single mouse.

[2] = tested on: U87 cell transplantation tumor (brain glioma); assay: MSI imaging of drug in brain tissue section (blood-brain barrier penetration); assay type: in vivo; settings: MSI of brain tissue section with U87 glioma implant
Excerpt: FIG. 9 is an MSI image of a drug and a metabolite (compound 27: m/z 499, lactic acid: m/z 113) in a brain tissue section, where an optical micrograph of a serial section of H&E staining is used as a reference. The brain glioma and the lateral ventricle are represented by dashed lines, a color bar encodes signal strength of […] small molecules in […] (MSI), and the resolution is 10 μm.

U87MG tumor = U87MG tumor growth and survival in mice after various treatments; assay type: in vivo, nude mouse
Excerpt: In all different experimental groups (a and b in FIG. 10), the overall survival (OS) of mice treated with TMZ and compound 27 is the best. […] However, mouse death caused by glioma is reduced only 20 days […] treatment. After this period of time, the survival rates of the in-situ U87 heterogeneous tumor of the two single drug groups decreases rapidly due to malignant glioma.

[3] = tested on: cranial nerve glioma cell U87; assay: Antiproliferative activity against cranial nerve glioma cell U87; assay type: cell-based; settings: Homo sapiens, U-87 MG; U87 cells; read-out: concentration at which half of the tumor cells are killed
Excerpt: FIG. 14 is an antiproliferative activity test diagram of compound 8, compound 11, compound 13, and compound 21 against a cranial nerve glioma cell U87.

U87 glioma cells = assay: Targeted metabonomics analysis of U87 cells; assay type: cell-based
Protocol: 1×10^7 cells (a sample cell number) were collected, and the cell supernatant was removed by means of centrifugation (1000×g, 1 minute) after quenching with a newly prepared quencher. The cells were resuspended with 100 μL of ultrapure water and mixed well. After 800 μL of cold methanol:acetonitrile (1:1, v/v) was added, the uniformly mixed cell samples were subjected to ultrasonic treatment in an ice bath for 30 minutes. The mixture was stored at −20° C. for 1 h to precipitate the protein. After centrifugation at 4° C. (14000×g, 20 minutes), the supernatant was collected, lyophilized, stored at −80° C., and then analyzed by means of […].
The lyophilized samples were resuspended in a solution (acetonitrile:water, 1:1, v/v, 100 μL) and then centrifuged at 4° C. (14000×g, 10 minutes). The supernatant (100 μL) was collected and diluted with an acetonitrile solution (100 μL), and a […] sample was loaded at 4° C. by using an Agilent 1290 Infinity liquid chromatography (LC) system (Agilent Technologies, Beijing, China) and a 5500 QTRAP mass spectrometer (Toronto of Canada, AB Sciex). At ACQUITY-UPLC-BEH column (1.7 μm, 2.1 mm×150 mm, Waters Technology (Shanghai) Co., Ltd.), chromatographic separation was performed at a flow rate of 300 μL/min, where solvent A (mobile phase) was a 15 mM ammonium acetate aqueous solution, and solvent B was acetonitrile. Chromatographic conditions of gradient elution were reduced from 90% B to 40% B, and were increased sharply from 40% B to 90% B after 18 minutes, a volume ratio of 90% B was kept for 4.9 minutes after 0.1 minute, and the duration of the whole process was 23 minutes. An equal volume of compounds was extracted from 32 actual samples so as to monitor the stability of the system, thereby being used for processing a quality control (QC) sample and put into a real sample. Mass spectrum experiments were performed in a negative ion and multi-reaction monitoring mode, and specific parameters were as follows: a source temperature of 450° C., an atomizer gas (GS1): 45, an auxiliary gas (GS2): 45, a curtain gas (CUR): 30, and an ion space voltage floating (ISVF): −4500 V.
Standard GC-MS data was processed by using analysis software (AB Sciex, Toronto, Canada), which included converting the original mass spectrum data to data containing m/z, measuring the corresponding ion intensity and retention time, and subsequent statistical analysis. Peak testing and calibration of all the samples were compared to their chemical standards (Sigma-Aldrich). […]
Statistical significance was tested by using t. *: P<0.05, **: P<0.01, and ***: P<0.005. […] The hexokinase (HK2 in cancer cells), which is the first one and serves as a rate-limiting enzyme in a glycolysis pathway was evaluated. […]

CCOc1ccc(C(=O)NCCCN(C)CCCN(C)Cc2ccccc2)cc1Br [compound 27]
AUC(0-t) [1]: 64400 ng·h/mL | Cmax [1]: 14600 ng/mL | Tmax [1]: 2 h | half-life [1]: 4.12 h | capacity of penetrating a blood-brain barrier [2]: can break through the blood-brain barrier | growth of solid tumors (U87MG tumor; U87MG subcutaneous tumor, nude mouse): can inhibit growth of solid tumors | glioma growth / survival rate, bioluminescence tracking (U87MG tumor; in situ U87-luciferase mice, compared with PBS): delays the growth of glioma | median survival time (U87MG tumor; mice with U87MG tumor, n=6 per group): 30 days | IC50 [3]: 11.3 µM | glyceraldehyde-3-phosphate accumulation relative to control group processed by PBS (U87 glioma cells; U87 cells after treatment): approximately 3.5 times | increase in concentration of thiamine pyrophosphate (TPP) (U87 glioma cells; U87 cells after treatment): ~2.5 times | glyceride-3-phosphate change (U87 glioma cells; U87 cells after treatment, P<0.005): significantly reduced by nearly two orders of magnitude | concentration of glucose-6-phosphate (U87 glioma cells; U87 cells, vs control group processed by PBS): lower than that of the control group
